Drawing on the RepoRT retention time repository, this text covers LC retention time for 84 compounds.

A short description of this series: HILIC, Waters ACQUITY UPLC BEH Amide, 100 × 2.1 mm, 1.7 µm; A: water + 0.125% formic acid + 10 mM ammonium formate; B: 5% water + 95% acetonitrile + 0.125% formic acid + 10 mM ammonium formate; gradient (min/%B) 0/100 2/100 7.7/70 9.5/40 10.25/30 12.75/100 17/100. The conditions noted are these: stereoisomer not certain.

Consider `Nc1ccc(O)c(C(=O)O)c1`, for which the LC retention time stood at 3.89 min. In the case of `Nc1nc2ccc(Cl)cc2c2nc(-c3ccco3)nn12`, the LC retention time came to 1.07 min.

As for `NC1CCN(c2cccc(Cl)n2)CC1`, the LC retention time is 4.85 min. As for `C=C(C)CN1CCC23c4c5ccc(O)c4OC2c2[nH]c4ccccc4c2CC3(O)C1C5` (centres undefined), the LC retention time came to 2.93 min. As for `CC(=O)NCCCCCCNC(C)=O`, the figure is 1.5 min. Turning to `COCC1=C(C(=O)OC(C)OC(=O)OC(C)C)N2C(=O)C(NC(=O)C(=NOC)c3csc(N)n3)C2SC1` (centres undefined), the LC retention time came out at 1.12 min. As to `Cc1sc(N)c(C(=O)c2cccc(C(F)(F)F)c2)c1C`, the LC retention time was determined as 0.94 min. For `Cc1cc2nc3c(=O)[nH]c(=O)nc-3n(CC(O)C(O)C(O)COP(=O)(O)OP(=O)(O)OCC3OC(n4cnc5c(N)ncnc54)C(O)C3O)c2cc1C` (centres undefined), the LC retention time is 9.52 min. On to `Cc1cn(C2CC(O)C(COP(=O)(O)O)O2)c(=O)[nH]c1=O` (centres undefined), for which the LC retention time came to 8.28 min. The value for `CN1CCC2(c3cccc(O)c3)Cc3nc4ccccc4cc3CC2C1` (centres undefined) was 5.11 min.

With `CN1CCN(c2nc3cc(C(F)(F)F)ccc3n3cccc23)CC1`, the LC retention time came out at 2.21 min. Turning to `COC(=O)N1CCN(C(=O)Cc2ccc(Cl)c(Cl)c2)C(CN2CCCC2)C1` (centres undefined), the LC retention time is 2.56 min. The value for `COc1ccc2[nH]cc(C3=CCNCC3)c2c1` was 4.61 min; that for `OC1CCCCC1O` (centres undefined) [1,2-Cyclohexanediol] was 4.88 min. The value for `O=C1CCCCC1=O` [1,2-Cyclohexanedione] was 5.77 min. On to `O=C1CCCC(=O)C1` [1,3 Cyclohexanedione], for which the LC retention time turned out to be 1.47 min. As for `CC12CCC3c4ccc(O)cc4CCC3C1CCC2=O` (centres undefined) [1,3,5(10)-Estratrien-3-ol-17-one], the figure is 1.01 min; as for `Cn1c(=O)c2c([nH]c(=O)n2C)n(C)c1=O` [1,3,7-Trimethyluric acid], 1.83 min. On to `O=C(O)C1CCC(C(=O)O)CC1` (centres undefined) [1,4-Cyclohexanedicarboxylic acid], for which the LC retention time was 1.56 min. As for `O=C1CCC(=O)CC1` [1,4-Cyclohexanedione], the figure is 1.15 min; as for `OCC1OCC(O)C(O)C1O` (centres undefined) [1,5-Anhydrosorbitol], 0.92 min.

With `Cn1c(=O)[nH]c2[nH]c(=O)n(C)c2c1=O` [1,7-Dimethyluric acid], the LC retention time worked out at 4.09 min. As to `Cn1c(=O)[nH]c2ncn(C)c2c1=O` [1,7-Dimethylxanthine], the LC retention time was 1.69 min.

In the case of `CC(=O)n1ccnc1` [1-Acetylimidazole], the LC retention time came out at 1.37 min.

Regarding `c1ccc(Cn2ccnc2)cc1` [1-Benzylimidazole], the LC retention time stood at 1.63 min. As for `Cn1cnc2c(ncn2C2OC(CO)C(O)C2O)c1=N` (centres undefined) [1-Methyladenosine], the figure is 7.46 min; as for `Cn1c(N)nc2c(ncn2C2OC(CO)C(O)C2O)c1=O` (centres undefined) [1-Methylguanosine], 5.84 min. Regarding `C[n+]1cccc(C(N)=O)c1` [1-Methylnicotinamide], the LC retention time amounted to 6.26 min. The value for `Cn1cc(C2OC(CO)C(O)C2O)c(=O)[nH]c1=O` (centres undefined) [1-Methylpseudouridine] was 4.99 min.

In the case of `Cn1cc(CC(N)C(=O)O)c2ccccc21` (centres undefined) [1-Methyltryptophan], the LC retention time was 6.38 min. As for `Cn1c(=O)[nH]c2[nH]c(=O)[nH]c2c1=O` [1-Methyluric acid], the figure is 2.18 min; as for `CCCCCCCCCCCCCCCCCC(=O)OCC(O)CO` (centres undefined) [1-Monostearin], 0.99 min.

On to `O=c1[nH]cnc2c1ncn2C1CCC(CO)O1` (centres undefined) [2',3'-Dideoxyinosine], for which the LC retention time is 3.44 min. The value for `Nc1ncnc2c1ncn2C1CC(O)C(COP(=O)(O)O)O1` (centres undefined) [2'-Deoxyadenosine-5'-monophosphate] was 8.63 min; that for `Nc1ncnc2c1ncn2C1CC(O)C(CO)O1` (centres undefined) [2'-Deoxyadenosine] was 3.92 min; that for `Nc1ccn(C2CC(O)C(CO)O2)c(=O)n1` (centres undefined) [2'-Deoxycytidine] was 5.87 min.

Regarding `Nc1nc2c(ncn2C2CC(OP(=O)(O)O)C(CO)O2)c(=O)[nH]1` (centres undefined) [2'-Deoxyguanosine 3'-monophosphate], the LC retention time worked out at 9.43 min. In the case of `Nc1nc2c(ncn2C2CC(O)C(COP(=O)(O)O)O2)c(=O)[nH]1` (centres undefined) [2'-Deoxyguanosine 5'-monophosphate], the LC retention time turned out to be 9.25 min. As to `Nc1nc2c(ncn2C2CC(O)C(CO)O2)c(=O)[nH]1` (centres undefined) [2'-Deoxyguanosine], the LC retention time turned out to be 6.4 min.

Turning to `COC1C(O)C(CO)OC1n1cc(C)c(N)nc1=O` (centres undefined) [2'-O-Methyl-5-methylcytidine], the LC retention time came out at 4.93 min. Regarding `COC1C(O)C(CO)OC1n1cc(C)c(=O)[nH]c1=O` (centres undefined) [2'-O-Methyl-5-methyluridine], the LC retention time amounted to 1.75 min. The value for `COC1C(O)C(CO)OC1n1cnc2c(N)ncnc21` (centres undefined) [2'-O-Methyladenosine] was 2.6 min; that for `COC1C(O)C(CO)OC1n1ccc(N)nc1=O` (centres undefined) [2'-O-Methylcytidine] was 5.02 min; that for `COC1C(O)C(CO)OC1n1cnc2c(=O)[nH]c(N)nc21` (centres undefined) [2'-O-Methylguanosine] was 5.72 min. In the case of `COC1C(O)C(CO)OC1n1cnc2c(=O)[nH]cnc21` (centres undefined) [2'-O-Methylinosine], the LC retention time was 4.06 min. The value for `COC1C(O)C(CO)OC1n1ccc(=O)[nH]c1=O` (centres undefined) [2'-O-Methyluridine] was 2.24 min; that for `CC(O)C(C)O` (centres undefined) [2,3-Butanediol] was 3.34 min; that for `Nc1ccn(C2CCC(CO)O2)c(=O)n1` (centres undefined) [2,3-Dideoxycytidine] was 4.54 min. As for `O=c1ccn(C2CCC(CO)O2)c(=O)[nH]1` (centres undefined) [2,3-Dideoxyuridine], the LC retention time came to 1.73 min.

Regarding `NC(CCCC(N)C(=O)O)C(=O)O` (centres undefined) [2,6-Diaminopimelic acid], the LC retention time worked out at 9.88 min.

As to `O=c1ccc2cccc(O)c2[nH]1` [2,8-Quinolinediol], the LC retention time turned out to be 1.53 min. With `NCCc1ccccn1` [2-(2-Aminoethyl)pyridine], the LC retention time amounted to 5.52 min. `COc1cccc(C(=O)O)c1N` [2-Amino-3-methoxybenzoic acid]: the LC retention time was determined as 1.27 min. For `NCC(=O)c1ccccc1` [2-Aminoacetophenone], the LC retention time worked out at 1.08 min. Turning to `NCCS` [2-Aminoethanethiol], the LC retention time is 2.05 min. The value for `NCCP(=O)(O)O` [2-Aminoethylphosphonic acid] was 9.39 min.

On to `Nc1ccccc1O` [2-Aminophenol], for which the LC retention time was determined as 1.22 min. The value for `OCC1OC(n2cnc3c(NC4CCCC4)nc(Cl)nc32)C(O)C1O` (centres undefined) [2-Chloro-N6-cyclopentyladenosine] was 1.47 min. On to `Nc1nc(Cl)nc2c1ncn2C1OC(CO)C(O)C1O` (centres undefined) [2-Chloroadenosine], for which the LC retention time came out at 2.69 min. As to `Nc1ccn(C2CC(O)C(COP(=O)(O)O)O2)c(=O)n1` (centres undefined) [2-Deoxycytidine-5-monophosphoric acid], the LC retention time was 9.16 min.

On to `O=CCC(O)C(O)CO` (centres undefined) [2-Deoxyribose], for which the LC retention time amounted to 1.42 min. `O=c1ccn(C2CC(O)C(CO)O2)c(=O)[nH]1` (centres undefined) [2-Deoxyuridine]: the LC retention time amounted to 2.96 min. As for `CCCC=CC=O` [2-Hexenal], the LC retention time is 1.39 min. For `CC(C)C(O)C(=O)O` (centres undefined) [2-Hydroxy-3-methylbutyric acid], the LC retention time is 1.29 min.

`CC(C)CC(O)C(=O)O` (centres undefined) [2-Hydroxy-4-methylpentanoic acid]: the LC retention time amounted to 1.57 min. In the case of `O=C(CO)c1ccccc1` [2-Hydroxyacetophenone], the LC retention time was found to be 4.36 min. Take `O=C(C=Cc1ccccc1O)c1ccccc1` [2-Hydroxychalcone]: the LC retention time was determined as 1.01 min. For the compound `O=C(O)CCC(O)C(=O)O` (centres undefined) [2-Hydroxyglutaric acid], the LC retention time amounted to 0.91 min. The value for `O=c1ccc2ccccc2[nH]1` [2-Hydroxyquinoline] was 1.51 min; that for `Oc1cc2ccccc2[nH]1` [2-Indolinone] was 1.36 min. As for `C=Cc1ccc(O)c(OC)c1` [2-Methoxy-4-vinylphenol], the figure is 8.71 min; as for `CCCCCCCCCCCCCC(=O)OC(CO)CO` [2-Myristoylglycerol], 1.01 min; as for `CCCCCCCCCCCCCCCC(=O)OC(CO)CO` [2-Palmitoylglycerol], 0.99 min. As for `NC(=O)Cc1ccccc1` [2-Phenylacetamide], the figure is 1.26 min; as for `CCC(=O)NCC(=O)O` [2-Propanamidoacetic acid], 5.37 min; as for `O=c1cccc[nH]1` [2-Pyridone], 2.05 min. For the compound `Nc1ccn(C2OC(CO)C(O)C2O)c(=S)n1` (centres undefined) [2-Thiocytidine], the LC retention time worked out at 5.33 min.

Turning to `O=c1ccn(C2OC(CO)C(O)C2O)c(=S)[nH]1` (centres undefined) [2-Thiouridine], the LC retention time was found to be 2.48 min. As for `OCC1OC(OC2C(O)OC(CO)C(O)C2O)C(O)C(O)C1O` (stereo not drawn) [2-alpha-Mannobiose], the LC retention time turned out to be 9.47 min. The value for `Nc1ncnc2c1ncn2C1CC2OP(=O)(O)OCC2O1` (centres undefined) [3',5'-Cyclic dAMP] was 7.29 min. The value for `COC1C(CO)OC(n2ccc(N)nc2=O)C1O` (centres undefined) [3'-O-Methylcytidine] was 5.09 min. The value for `COC1C(CO)OC(n2cnc3c(=O)[nH]c(N)nc32)C1O` (centres undefined) [3'-O-Methylguanosine] was 5.8 min; that for `COC1C(CO)OC(n2ccc(=O)[nH]c2=O)C1O` (centres undefined) [3'-O-Methyluridine] was 2.42 min; that for `O=C(O)C(O)c1ccc(O)c(O)c1` (centres undefined) [3,4-Dihydroxymandelic acid] was 2.3 min.
